This is an account of results in patent publication US12097213B2, “Sequential treatment of cancers using 6-thio-dG, checkpoint inhibitors and radiation therapy” (The Board of Regents of the University of Texas System, priority 2020, dated 2024).

Structures are written as SMILES.

The term IC50 denotes the concentration that inhibits the measured activity by half.

One test has as its system cancer cells. The settings on record: depending on cell type, even including therapy resistant cancers; read-out: observed IC50 values; cited from earlier work.
The next test concerns MC38 tumor cells. The experiment in a line: MC38 tumor growth and treatment in mice. The test is classed as in vivo, mouse. As to the method: Tumor growth and treatment. A total of 5×10^5 MC38, 5×10^5 CT26 or 1×10^6 LLC cells were inoculated subcutaneously into right dorsal flanks of the mice in 100 μL phosphate buffered saline (PBS). Tumor-bearing mice were randomly grouped into treatment groups when tumors grew to around 100 mm^3. For 6-thio-dG single treatment, 3 mg/kg 6-thio-dG was intraperitoneally given on days 7, 8 and 9 in MC38 tumor and LLC tumor and on days 5, 6, 7 for CT26 tumor. For CSF1R, NKL.1, CD4+ and CD8+ T cell depletion, 200 μg of antibodies were intraperitoneally injected 1 day before treatment initiation and then twice a week for 2 weeks. For PD-L1 blockade combination therapy in MC38 model, 6-thio-dG was given on day 10 and day 11, 50 μg PD-L1 was intraperitoneally injected on day 13 and 17. For PD-L1 blockade combination therapy in LLC model, 6-thio-dG was given on day 4, 5, 6, 10 and 11, 200 μg PD-L1 was intraperitoneally injected on day 8 and 13. Tumor volumes were measured by the length (a), width (b) and height (h) and calculated as tumor volume=abh/2.

For test [1], the system named is DCs co-cultured with MC38 cells. The experiment in a line: Detection of EdU-labeled tumor DNA in bone marrow derived dendritic cells. The test is classed as cell-based, mouse. The settings on record: MC38 labeled with 25 μM EdU, 1 μM 6-thio-dG. As to the method:
Detection of DNA in Bone Marrow Derived Dendritic Cells. Cells were labeled with EdU as described previously (Min et al., 2019). Briefly, 100,000 MC38 cells were seeded to 6-well plate and labeled with 25 μM EdU. Two days later, cells were washed out and treated with 1 μM 6-thio-dG for 24 hrs. Cells were washed out again and co-cultured with BMDCs for overnight. Next day, DCs were sorted out with magnetic beads, washed, fixed and cytospun. Slides were then stained with 6-carboxytetramethlyrhodamine fluorescent azide (Invitrogen) in fresh homemade EdU-staining solution (PBS containing 1 mM CuSO4, 2 mM ascorbic acid) for 30 min. Slides were then washed vigorously with PBS for at least 1 hr, and then telomere FISH steps using a FAM-TelG probe were followed as described in “Telomere dysfunction Induced Foci (TIF) and micronuclei assays” method parts. Images were captured at 63× magnification with an Axio Imager Z2 equipped with an automatic metaphase capture system (Coolcubel camera) and analyzed with ISIS software (Metasystems).

Consider `Nc1nc2c(ncn2[C@H]2C[C@H](O)[C@@H](CO)O2)c(=S)[nH]1` [6-thio-dG, 6-thio-2′-deoxyguanosine], for which the concentration for half-maximal inhibition (IC50) with cancer cells is 700 to 2900 nM. Also, in the test with MC38 tumor cells (200 μg anti-CD4, 3 mg/kg, days 7, 8, 9), the “therapeutic effect on tumor growth with CD4+ T cell depletion” value is given as “marginal influence”. In the test with MC38 tumor cells (200 μg anti-CD8, 3 mg/kg, days 7, 8, 9), the “therapeutic effect on tumor growth with CD8+ T cell depletion” value is “completely abolished”. Besides, the “tumor growth with macrophage depletion” value with MC38 tumor cells (200 μg anti-CSF1R, 3 mg/kg, days 7, 8, 9) is on record as “worked even better”. Besides, the “therapeutic effect with NK cell depletion” value in the test on MC38 tumor cells (200 μg anti-NK1.1, 3 mg/kg, days 7, 8, 9) is “did not see an impact”. Besides, the tumor growth result was “partially delayed tumor growth but was significantly less effective compared with WT mice” with MC38 tumor cells (Batf3 deficient mice, 3 mg/kg, days 7, 8, 9); “still controlled tumor growth” in the test with MC38 tumor cells (Mb21d1KO MC38 tumor cells in C57BL/6 mice, 3 mg/kg, days 7, 8, 9); “controlled tumor growth well” with MC38 tumor cells (Myd88−/− mice, 3 mg/kg, days 7, 8, 9); “still controlled tumor growth” with MC38 tumor cells (Tmem173KO MC38 tumor cells in C57BL/6 mice, 3 mg/kg, days 7, 8, 9); “significantly reduced” in the test with MC38 tumor cells (WT C57BL/6 mice, 3 mg/kg daily for three days (days 7, 8, 9), i.p., vs control tumor). Besides, the mice tumor free result with MC38 tumor cells (Batf3−/− mice) is on record as “none”. The anti-tumor effect entry in the test with MC38 tumor cells (Ifnar1−/− mice, 3 mg/kg, days 7, 8, 9) was “abolished”. In addition, in the test with MC38 tumor cells (Rag1 knock out mice, 3 mg/kg, days 7, 8, 9), the “therapeutic effect on tumor growth” value was “completely diminished”. Moreover, the “tumor growth (efficacy)” value with MC38 tumor cells (Tmem173−/− mice, 3 mg/kg, days 7, 8, 9) is “completely lost efficacy”. Further, in the test on MC38 tumor cells (WT mice), the “mice completely tumor free” value is recorded as 60%. Further, in the test on MC38 tumor cells (cured mice rested 5 weeks, 10 times more tumor cells, opposite flank), the “re-challenge with MC38 tumor (memory response)” value is “spontaneously rejected re-challenged MC38 tumors”. Also, in the test with MC38 tumor cells (tumor sizes 150-200 mm^3, 6-thio-dG 3 mg/kg days 10, 11, 50 μg anti-PD-L1 days 13 and 17), the “tumor volume / tumor growth in advanced tumors” value was “difficult to control”. In addition, the “telomere co-localization with EdU in EdU+ DCs” value in test [1] is “increase”.
